The text below walks through data of US20040059104A1, “Nucleotide mimics and their prodrugs” (priority 2002, published 2004).

Data set [1] is described as follows: in vitro. As to conditions: human. The protocol: The stability of compounds in cell extracts was examined as follows:
Cell lysis buffer was added to cell pellets and the cells frozen and thawed 3× using dry ice. The lysis buffer (LB) was composed of the following: 50 mM Tris-HCl, pH 7.4 (100 μl/ml 10× stock), 20% glycerol (200 μl/ml), and 0.5% Triton X-100 (5 μl/ml). 100 μl of LB was added to each microfuge tube containing 10^7 frozen CEM cells. After the cells were lysed the extracts were centrifuged at high speed in a microcentrifuge for 5 minutes and the clarified cell extract transferred to a new tube. The cell stability reaction mixtures contained concentrations of buffer, magnesium, nucleotide, and cell extract as shown below:
The reaction mixtures were incubated at 37° C. At each time point, including at time zero, 12.5 μl aliquots were added to 40 μl ice-cold methanol. […] The samples were incubated in methanol for at least 60 minutes and typically overnight at −20° C. prior to further processing. The cell extracts were centrifuged at high speed in refrigerated microcentrifuge for 20 minutes and the supernatant transferred to a new tube. The extract was then dried under vacuum in a LabConco Centrivap Concentrator. The samples were then resuspended in 40 or 50 μl dH2O, filtered to remove any particulate, and analyzed by reverse phase HPLC.
The reverse phase HPLC columns used for the analysis were either a Phenomenex C18 Aqua column (2×100 mm) or the Phenomenex C18 Aqua column (3×150 mm) used with the appropriate guard column. The HPLC flow rate was either 0.2 ml/min (for the 2×100 mm column) or 0.5 ml/min (for the 3×150 mm column) with the following buffer system: 5 mM tetrabutylammonium acetate, 50 mM ammonium phosphate, and an acetonitrile gradient running from 5% up to as high as 60%. The amount of remaining parent compound at each time point was used to determine the half-life of the compound. […] Unmodified nucleoside triphosphates were used as positive controls.

Data set [2] concerns CEM-SS cells. Nature of the data set: Compound toxicity in CEM-SS cells (MTS staining). The format is cell-based. As to conditions: read-out: CEM-SS TC50. How it is done:
(§1) ollowing paper: Structure-Activity and Cross-Resistance unodeficiency Virus Type 1-Specific ckheit, Jr. et al., Antimicrobial Agents and s were evaluated in CEM-SS cell cultures V-1RF at an MOI of approximately 0.01. At he soluble tetrazolium-based dye MTS viability and quantify compound toxicity of metabolically active cells to yield a soluble analysis of cell viability and compound
(§2) At assay termination, the assay plates were stained with the soluble tetrazolium-based dye MTS (CellTiter Reagent Promega) to determine cell viability and quantify compound toxicity. MTS is metabolized by the mitochondrial enzymes of metabolically active cells to yield a soluble formazan product, allowing the rapid quantitative analysis of cell viability and compound cytotoxicity. […] At termination of the assay, 20 μL of MTS reagent was added per well. The microtiter plates were then incubated 4-6 hrs at 37° C. for the HIV cytoprotection assay; the incubation intervals were chosen based on empirically determined times for optimal dye reduction. Adhesive plate sealers were used in place of the lids, the sealed plate was inverted several times to mix the soluble formazan product and the plate was read spectrophotometrically at 490 nm with a Molecular Devices Vmax plate reader.

Data set [3] has as its system CEM cells. Nature of the data set: Cell uptake procedure (intracellular nucleotide levels by HPLC). The format is cell-based, Human. As to conditions: 24 hour incubation, limit of detection about 5 pmol/10^6 cells. The protocol:
CEM cells were resuspended in RPMI at 1×10^7 cells/mL. The appropriate amount of each compound was added to well and then 0.5 ml of the cells was aliquoted into the appropriate number of wells of a 24-well plate and incubated the cells at 37° C. Cells were harvested after 24 hours of incubation. To harvest cells they were transferred to a microfuge tube and spun for one minute at high speed. The samples were washed in PBS containing 1 mg/ml BSA and re-centrifuged. The PBS was then aspirated and 200 μL of ice-cold 60% methanol was added to extract the nucleotides. The extracts were incubated overnight at −20° C. The next day the samples were spun at high speed in a microfuge for 20 minutes and the supernatant transferred to clean tubes and dried in the speed vac. After drying the samples were resuspended in 50 μl, filtered, and the samples then directly injected onto the HPLC. The nucleotides were analyzed using reverse phase HPLC with ion-pairing agents for separation of the nucleotides. The procedure was adapted from the following paper: Furman, et al., Proc. Natl. Acad. Sci. USA 1986, 83, 8333-8337.
The limit of detection was estimated to be 5 pmol/10^6 cells.

Data set [4] can be described thus: in vitro. As to conditions: bovine, serum. The protocol: Typically the total volume used for the experiment was 500 μl. The final concentrations of the reaction components were as follows:
The reacton mixtures were made up and incubated at 37° C. At appropriate times aliquots of 25 μl were removed and added to 65 μl ice-cold methanol. These solutions were our at −20° C. and typically overnight. After incubation samples were inutes at high speed in a microcentrifuge. The supernatant was nd the extract was dried under vacuum in a LabConco Centrivap Concentrator. The dried extracts were resuspended in dH2O and filtered to remove particulate before analysis on reverse phase HPLC.
The reverse phase HPLC columns used for the analysis were either a Phenomenex C18 Aqua column (2×100 mm) or the Phenomenex C18 Aqua column (3×150 mm) used with the appropriate guard column. The HPLC was run at 0.2 ml/min (for the 2×100 mm column) or at 0.5 ml/min (for the 3×150 mm column) with the following buffer system: 5 mM tetrabutylammonium acetate, 50 mM ammonium phosphate, and an acetonitrile gradient running from 5% up to as high as 60%. The amount of remaining parent compound at each time point was used to determine the half-life of the compound. […] Unmodified nucleoside triphosphates were used as positive controls.

For data set [5], the system named is Escherichia coli. Nature of the data set: Antimicrobial assay, minimal inhibitory concentration. The format is cell-based. How it is done:
To examine the antimicrobial potential of the nucleotide mimics of the present invention an assay was employed that allowed the screening of a large number of compounds simultaneously. The type of bacteria chosen to screen the compounds are organisms associated with human disease and represent major groups of bacteria based on their structure and metabolism. Bacterial cultures of Escherichia coli and Staphylococcus aureus were incubated overnight at 37° C. in a shaker incubator. A lawn of each overnight bacterial culture was made by plating […] of bacteria on agar plates containing Nutrient Broth. Immediately after plating, sterile blank paper discs were put on top of the lawn and a compound was applied to each blank paper disc. Plates were then incubated overnight and examined for the inhibition of bacterial growth the following day. […] The plates were incubated overnight at 37° C. and then examined spectrophotometrically at 600 nm to determine the minimum concentration of each compound that inhibited replication of bacteria as determined by no increase in absorbance at 600 nm.

For data set [6], the system named is HIV-1RF. Description: Anti-HIV-1 cytoprotection assay in CEM-SS cells. The format is cell-based. As to conditions: CEM-SS cells infected with HIV-1RF, MOI approximately 0.01, 6 days, MTS; read-out: CEM-SS IC50 (Anti-HIV Screening). The protocol:
as §1
Efficacy Evaluation in CEM-SS Cells Anti-HIV-1 Cytoprotection Assay
Cell Preparation—CEM-SS cells were passaged in T-75 flasks prior to use in the antiviral assay. On the day preceding the assay, the cells were split 1:2 to assure they were in an exponential growth phase at the time of infection. Total cell and viability quantification was performed using a hemacytometer and trypan blue exclusion. Cell viability was greater than 95% for the cells to be utilized in the assay. The cells were resuspended at 5×10^4 cells/ml in tissue culture medium and added to the drug-containing microtiter plates in a volume of 50 μl.
Virus Preparation—The virus used for these tests was the lymphocytropic virus strain HIV-1RF. This virus was obtained from the NIH AIDS Research and Reference Reagent Program and was grown in CEM-SS cells for the production of stock virus pools. For each assay, a pre-titered aliquot of virus was removed from the freezer (−80° C.) and allowed to thaw slowly to room temperature in a biological safety cabinet. The virus was resuspended and diluted into tissue culture medium such that the amount of virus added to each well in a volume of 50 μl was the amount determined to give between 85 to 95% cell killing at 6 days post-infection.
as §2

Data set [7] has as its target T1, HIV Reverse Transcriptase (Type B, 66 kDa subunit) (Human immunodeficiency virus type 1 group M subtype B, UniProt P04585).
T1 construct: purified HIV Reverse Transcriptase (Type B, 66 kDa subunit)
Description: HIV Reverse Transcriptase inhibition assays (RNA-directed DNA polymerization, PicoGreen fluorescence). The format is biochemical. As to conditions: Table 1; template (homopolymer or heteropolymer RNA) not stated; read-out: Ki, Inhibition of HIV Reverse Transcriptase by Nucleotide Mimics. How it is done: The assays employed to measure inhibition of HIV Reverse Transcriptase (HIV RT) catalyzed/RNA-directed DNA polymerization are described below. The effectiveness of the compounds of the present invention as inhibitors of HIV RT-catalyzed DNA polymerization was measured in the following assays.
This assay was used to measure the ability of the nucleotide mimics of the present invention to inhibit the enzymatic synthesis of complementary strand DNA from a DNA-primed template of homopolymeric RNA. This assay is a modification of a published procedure (Seville, et al., “Fluorometric Assay for DNA Polymerases and Reverse Transcriptase”, BioTechniques 1996, 21, 664-72).
The compounds were tested at various concentrations up to 500 μM final concentration. DNA polymerase activity was measured in a reaction buffer containing primed-RNA template and dTTP diluted to appropriate concentrations in assay buffer. Nucleotide mimics of the present invention were diluted in buffer and pipetted into the wells of a 96-well plate. The reaction was initiated by addition of enzyme and allowed to proceed at 37° C. for 10 minutes. The reaction was quenched by addition of 5 μL 0.2 M EDTA, pH 8.0.
200 μL of diluted PicoGreen dsDNA Quantitation Reagent (Molecular Probes, Inc, Eugene, Oreg.) was added to each well of a 96-well plate and incubated at room temperature for 5 minutes. Plate wells were read on a microplate fluorometer (Molecular Devices Corp., Sunnyvale, Calif.). The wells were excited at 480 nm and the fluorescence emission intensity (RFU) was measured at 520 nm. The percentage of inhibition was calculated according to the following equation:
% Inhibition=[1−(RFU in test reaction−RFU in blank)/(RFU in control reaction−RFU in blank)]×100.
Each inhibitor was titrated over an appropriate range of concentrations, and inhibition constants were determined using the following equations:
v=Vm[S]/(Km(1+[I]/Ki)+[S])
Certain compounds of the present invention were also tested to determine their ability to inhibit HIV RT-catalyzed DNA polymerization on a heteropolymeric primed-RNA template in the presence of all four natural deoxynucleotide triphosphate (dNTP) substrates. This assay is a modification of a published procedure (Parker et al., “Mechanism of Inhibition of Human Immunodeficiency Virus Type 1 Reverse Transcriptase and Human DNA Polymerases α, β, and γ by the 5′-Triphosphates of Carbovir,3′-Azido-3′-deoxythymidine,2′-3′-Dideoxyguanosine, and 3′-Deoxythymidine”, J. Biol. Chem. 1991, 266 (3), 1754-62).
HIV RT DNA polymerase activity was measured in a reaction buffer containing primed-ribosomal RNA template and dNTPs diluted to appropriate concentrations in assay buffer and pipetted into 1.5 mL microcentrifuge tubes. Nucleotide mimics of the present invention were diluted in buffer and tested at various concentrations up to 5 μM final concentration. The reaction was initiated by addition of enzyme and allowed to proceed at 42° C. for 60 to 90 minutes. The reaction was quenched by addition of 12 μL 0.2 M EDTA, pH 8.0.
50 μL each of reaction was transferred to the well of a 96-well plate (in duplicate). 200 μL of diluted PicoGreen dsDNA Quantitation Reagent was added to each well of a 96-well plate and incubated at room temperature for 5 minutes. Plate wells were read on a microplate fluorometer. The wells were excited at 480 nm and the fluorescence emission intensity (RFU) was measured at 520 nm. The percentage of inhibition and inhibition constants […] were determined for representative compounds as described above.

[8] abbreviates: incubation concentration 100 μM.
[9] abbreviates: overnight at 37° C., tested 0-200 μg/ml, NA = Not active.
Setting [10] is: value in brackets beside the μg/ml value.

A word on the IC50: it is the concentration that inhibits the measured activity by half. In the case of “3′-Azido-3′-deoxythymidine 5′-α-P-borano-γ-O-(S-pivaloyl-2-thioethyl)-β,γ-(difluoromethylene)triphosphate [Compound 70]”, in data set [1], the “Half-Life, Cell Extract Half-Lives of AZT 5'-α-P-borano-β,γ-(difluoromethylene) triphosphate Prodrugs” value amounted to 15 h. Besides, in data set [2], the CC50 is over 200000 nM. In addition, the “Intracellular levels of 27” value was 10.5 pmol/10^6 cells in data set [3] (incubation concentration 25 μM), 15.6 pmol/10^6 cells in data set [3] (incubation concentration 50 μM) and 19.7 pmol/10^6 cells in data set [3] (setting [8]). Further, the “Half-Life, Serum Half-Lives of AZT Triphosphate Mimic Prodrugs” value (shortened to “Half-Life, Serum Half-Lives”) in data set [4] is over 48 h. In addition, the “E. coli MIC” value is 6 µg/mL in data set [5] (setting [9]) and “(8.8) uM” in data set [5] (setting [10]). Also, the concentration for half-maximal inhibition (IC50) in data set [6] turned out to be 950 nM.
By Ki is commonly meant a measure of affinity in units of concentration, obtained from inhibition or displacement. Take `BP(=O)(OC[C@H]1O[C@@H](n2cc(C)c(=O)[nH]c2=O)C[C@H]1N=[N+]=[N-])OP(=O)(O)C(F)(F)P(=O)(O)Oc1ccccc1` (stereo partly drawn) [Compound 42, 3′-Azido-3′-deoxythymidine 5′-α-P-borano-β,γ-difluoromethylene-γ-O-phenyltriphosphate]: the CC50 in data set [2] was 32100 nM. For the same compound, the “Half-Life, Serum Half-Lives” value in data set [4] was over 48 h. Further, the IC50 in data set [6] worked out at 2540 nM. In addition, the Ki in data set [7] was 113 nM.
Take `BP(=O)(OC[C@H]1O[C@@H](n2cc(C)c(=O)[nH]c2=O)C[C@H]1N=[N+]=[N-])OP(=O)(O)C(F)(F)P(=O)(O)OCOC(=O)C(C)(C)C` (stereo partly drawn) [Compound 69, 3′-Azido-3′-deoxythymidine 5′-α-P-borano-γ-O-(pivaloyloxymethyl)-β,γ-(difluoromethylene)triphosphate]: the “Half-Life, Cell Extract Half-Lives of AZT 5'-α-P-borano-β,γ-(difluoromethylene) triphosphate Prodrugs” value in data set [1] is 8 h. Besides, the CC50 in data set [2] is 45900 nM. For the same compound, the “Intracellular levels of 27” value in data set [3] (incubation concentration 25 μM) was determined as 33.1 pmol/10^6 cells; in data set [3] (incubation concentration 50 μM), 51.1 pmol/10^6 cells; in data set [3] (setting [8]), 70.8 pmol/10^6 cells. Also, the “Half-Life, Serum Half-Lives” value in data set [4] is over 48 h. Further, the “E. coli MIC” value is 0.75 µg/mL in data set [5] (setting [9]) and “(1) uM” in data set [5] (setting [10]). Moreover, the IC50 in data set [6] is 1130 nM.
